From patent publication US20240026262A1, “METHODS AND DEVICES FOR EX-UTERO MOUSE EMBRYONIC DEVELOPMENT” (Yeda Research and Development Co. Ltd., priority 2021, published 2024)
“Also recorded” adds a separate entry of the source.

What was measured:
mouse embryos = experiment: Ex utero culture of mouse embryos from E6.5 in supplemented EUCM, proper embryo development per stage
Procedure: E5.5 and E6.5 embryos ex utero culture—Cultures starting with pre-gastrulation (E5.5) and early gastrulation (E6.5) embryos were effected in static culture conditions until the early somite stage. Embryos were dissected out of the uterus and individual embryos were transferred into each well of a 8-wells glass bottom/ibiTreat μ-plates (iBidi; 80827/80826) filled with 250 μl of EUCM. To optimize culturing conditions, different media, oxygen concentrations (5% or 21%), extracellular matrices (Matrigel), supplements (N2/B27), and gas pressures (hyperbaric 2.5 or 5 psi) were tested. Media was pre-heated for an hour in an incubator with 5% CO2 at 37° C. Pre-primitive streak stage embryos (distal and anterior visceral endoderm stage) were chosen for culture in the case of E5.5, and early-primitive streak stage embryos were selected for cultures beginning at E6.5. Only embryos with no evident damage and without Reichert's membrane were cultured. Half a volume of media was replaced every 24 hours. Embryos were transferred into the rotating culture at the 4-7 somite stage (three days for cultures started at E5.5 and two days for cultures started at E6.5) or at the late gastrulation stage using the same conditions described previously for E8.5, with the difference that embryos were maintained in a constant atmosphere of 21% oxygen and 5% CO2. Transfer of the embryos at earlier or later stages results in failure of further development. Dynamic oxygen conditions yielded slightly less efficiency for expanding E6.5-E11 than using constant 21% oxygen (FIGS. 10A-B). This difference could result from oxygen diffusion in static conditions being be less efficient than in roller conditions, and that might be why higher oxygen is needed to be delivered in protocols that include static conditions. To allow further culture of the embryos until the stage (E13.5), oxygen was increased to 95% from E10.5 onwards and at E11.5 the embryos were dissected out of the yolk sac and amnion carefully avoiding rupture of any major yolk sac blood vessels, but keeping the yolk sac and umbilical cord attached to the embryo. Morphological evaluation of mouse embryo development—Assessment of appropriate embryo development was performed based on previously established morphological features [Van Maele-Fabry, G., et al. Toxicol. Vitr. 4, 149-156 (1990); Van Maele-Fabry, G., et al. Int. J. Dev. Biol. 36, 161-167 (1992)]. Only embryos presenting all of the following features were considered as properly developed. Proper development at the morphological level from E5.5/E6.5 to E8.5 was assessed as follows: At E6.5, the embryos are constituted by three cell lineages: the cup-shaped pluripotent epiblast (Epi) and two extra-embryonic lineages, the extraembryonic ectoderm (ExE) and the visceral endoderm (VE). The cavities in the embryonic and extraembryonic compartments are unified to form the pro-amniotic cavity, radial symmetry is broken in the epiblast to initiate specification of the primitive streak. After 1 or 2 days of culture ex utero (depending on the time of culture initiation, E5.5 or E6.5), the embryos reach the neural plate stage equivalent to E7.5, with no allantoic bud or early bud. The amniotic folds fuse to form the amnion, and the chorion develops from the ExE and the extraembryonic mesoderm. These events generate three cavities in the embryo: amniotic, exocoelomic and ectoplacental cavities. A small allantois bud is present in some of the embryos, at the base of the primitive streak, and the anterior ectoderm begins to form the future neural groove. On the following day, cultured embryos present between 4 to 8 pairs of somites with the embryo curved dorsally, the yolk sac and yolk sac blood circulation has been established, the allantois started to fuse with the chorion, head folds are well-formed as well as the invaginating foregut and beating heart. […]

[1] = tested on: neural tube closure in mouse embryos; experiment: Teratogenic experiments in mouse embryos cultured ex utero since E7.5; settings: 1 mM in culture media from E8.5 to E9.5, n=6
Procedure: E7.5 embryo dissection and ex utero culture—Mouse embryos were obtained from non-hormone primed pregnant mice sacrificed by cervical dislocation at E7.5. Subsequently, embryos were dissected out from the uterus in dissection medium pre-equilibrated at 37° C. for 1 hour, consisting of DMEM (GIBCO 11880; includes already 1 mg/mL D-glucose and pyruvate, without phenol red and without L-glutamine) supplemented with 10% Fetal Bovine Serum (Biological Industries; 040131A), sterilized by using a 0.22 μm filter (JetBiofil; FCA-206-250). The embryos were carefully dissected from the decidua and parietal yolk sac leaving the intact ectoplacental cone attached to the egg cylinder. Briefly, the decidua was isolated from the uterine tissue and the tip of the pear-shaped decidua was cut. The decidua was then opened into halves by introducing the forceps adjacent to the embryo in parallel to its long axis and subsequently opening the forceps. Afterwards the embryo was grasped from the decidua and the parietal yolk sac was peeled off the embryo using two forceps. Embryo dissection was performed on a microscope equipped with a Tokai Hit thermo plate at 37° C., within a maximum of 30 minutes to avoid affecting the embryo developmental potential. […] Developmental stage of the embryos was determined according to Downs & Davies^5. […]

CC(=O)C(=O)[O-].[Na+] [sodium pyruvate]
effect on forebrain growth and forebrain defects (mouse embryos; 1 mM sodium pyruvate added to EUCM): promotes forebrain growth and eliminates forebrain defects | proper embryo development at E7.5 (mouse embryos; EUCM with additional 4 mg/ml glucose and 1 mM sodium pyruvate since E6.5, stage E7.5): 8/8 - 100% | proper embryo development at E8.5 (embryos/total) (mouse embryos; EUCM with additional 4 mg/ml glucose and 1 mM sodium pyruvate since E6.5, stage E8.5): 7/7 (1 attached) | proper embryo development at E9.5 (mouse embryos; EUCM with additional 4 mg/ml glucose and 1 mM sodium pyruvate since E6.5, stage E9.5): 6/7 - 85.7% | proper embryo development at E10.5 (mouse embryos; EUCM with additional 4 mg/ml glucose and 1 mM sodium pyruvate since E6.5, stage E10.5): 6/7 - 85.7% | proper embryo development at E11.5 (mouse embryos; EUCM with additional 4 mg/ml glucose and 1 mM sodium pyruvate since E6.5, stage E11.5): 4/7 - 57% | proper embryo development at E12.5 (mouse embryos; EUCM with additional 4 mg/ml glucose and 1 mM sodium pyruvate since E6.5, stage E12.5): 4/7 - 57% | effect on culture efficiency (mouse embryos; additional 4 mg/ml glucose and 1 mM sodium pyruvate in EUCM since E6.5): helps to improve culture efficiency

CCCC(CCC)C(=O)O [valproic acid]
teratogenic effect on neural tube closure [1]: neural tube closure defects; also recorded: teratogenic effects of valproic acid on neural tube closure could be recapitulated
